Assay: Pharmacokinetic test of compound in SD rat
Format: in vivo
Settings: SD rats, intragastric administration (IG), cassette dosing
Experimental: Example 28: Pharmacokinetic Test of Compound in SD Rat
The animal species used in this experiment were SD rats. There were 3 animals per group. The rats were dosed in cassette format, i.e., multiple (1-6) different compounds were dosed simultaneously to the same group of the SD rats. The vehicle used for the drug was 5% DMSO+5% Solutl+90% ([…] methylcellulose M450), and the administration route was intragastric administration (IG).

Structure (SMILES)	AUC_D [kg·ng·h/mL/mg]
[2H]C([2H])([2H])NC(=O)[C@H]1O[C@@H](n2cnc3c(NCc4cscn4)nc(-c4cncc(Cl)c4)nc32)[C@H](O)[C@@H]1O [compound 253, (2S,3S,4R,5R)-5-(2-(5-chloropyridin-3-yl)-6-((thiazol-4-ylmethyl)amino)-9H-purin-9-yl)-3,4-dihydroxyl-N-(methyl-d3)tetrahydrofuran-2-carboxamide]	299.00
CNC(=O)[C@H]1O[C@@H](n2cnc3c(NCc4ccccn4)nc(-c4cncc(C)c4)nc32)[C@H](O)[C@@H]1O [compound 69, (2S,3S,4R,5R)-3,4-dihydroxyl-N-methyl-5-(2-(5-methylpyridin-3-yl)-6-((pyridin-2-ylmethyl)amino)-9H-purin-9-yl)tetrahydrofuran-2-carboxamide]	360.90
CCOc1cncc(-c2nc(NCc3ccccc3)c3ncn([C@@H]4O[C@H](C(=O)NC)[C@@H](O)[C@H]4O)c3n2)c1 [compound 158, (2S,3S,4R,5R)-5-(6-(benzylamino)-2-(5-ethoxypyridin-3-yl)-9H-purin-9-yl)-3,4-dihydroxyl-N-methyltetrahydrofuran-2-carboxamide]	602.00
CNC(=O)[C@H]1O[C@@H](n2cnc3c(NCc4cccc(Cl)c4)nc(-c4cncc(Cl)c4)nc32)[C@H](O)[C@@H]1O [compound 209, (2S,3S,4R,5R)-5-(6-((3-chlorobenzyl))amino-2-(5-chloropyridin-3-yl)-9H-purin-9-yl)-3,4-dihydroxyl-N-methyltetrahydrofuran-2-carboxamide]	1347.60
CNC(=O)[C@H]1O[C@@H](n2cnc3c(NCc4cccc(C(F)(F)F)c4)nc(-c4cncc(OC)c4)nc32)[C@H](O)[C@@H]1O [compound 181, (2S,3S,4R,5R)-5-(6-(3-(trifluoromethyl)benzylamino)-2-(5-methoxypyridin-3-yl)-9/-purin-9-yl)-3,4-dihydroxyl-N-methyl-tetrahydrofuran-2-formamide]	72.67
CNC(=O)[C@H]1O[C@@H](n2cnc3c(NCc4cccc(C)n4)nc(-c4cncc(C)c4)nc32)[C@H](O)[C@@H]1O [compound 295, (2S,3S,4R,5R)-3,4-dihydroxyl-N-methyl-5-(6-(((6-methylpyridin-2-yl)methyl)amino)-2-(5-methylpyridin-3-yl)-9H-purin-9-yl)tetrahydrofuran-2-carboxamide]	610.66
[2H]C([2H])([2H])NC(=O)[C@H]1O[C@@H](n2cnc3c(NC(C)C)nc(-c4cncc(Cl)c4)nc32)[C@H](O)[C@@H]1O [compound 319, (2S,3S,4R,5R)-5-(2-(5-chloropyridin-3-yl)-6-(isopropylamino)-9H-purin-9-yl)-3,4-dihydroxyl-N-(methyl-d3)tetrahydrofuran-2-carboxamide]	74.00
CNC(=O)[C@H]1O[C@@H](n2cnc3c(NCc4cccc(C(F)(F)F)c4)nc(-c4cncc(F)c4)nc32)[C@H](O)[C@@H]1O [compound 180, (2S,3S,4R,5R)-5-(6-(3-(trifluoromethyl)benzylamino)-2-(5-fluoropyridin-3-yl)-9H-purin-9-yl)-3,4-dihydroxyl-N-methyl-tetrahydrofuran-2-formamide]	81.74
CNC(=O)[C@H]1O[C@@H](n2cnc3c(NCc4ccccc4)nc(-c4cncc([N+](=O)[O-])c4)nc32)[C@H](O)[C@@H]1O [compound 152, (2S,3S,4R,5R)-5-(6-(benzylamino)-2-(5-nitropyridin-3-yl)-9H-purin-9-yl)-3,4-dihydroxyl-N-methyltetrahydrofuran-2-carboxamide]	1352.37
[2H]C([2H])([2H])NC(=O)[C@H]1O[C@@H](n2cnc3c(OCc4ccccc4)nc(-c4cncc(Cl)c4)nc32)[C@H](O)[C@@H]1O [compound 323, (2S,3S,4R,5R)-5-(6-(benzyloxy)-2-(5-chloropyridin-3-yl)-9H-purin-9-yl)-3,4-dihydroxyl-N-(methyl-d3)-tetrahydrofuran-2-formamide]	1309.00
[2H]C([2H])([2H])NC(=O)[C@H]1O[C@@H](n2cnc3c(NCc4ccccc4)nc(-c4cncc(OC)c4)nc32)[C@H](O)[C@@H]1O [compound 33, (2S,3S,4R,5R)-5-(6-(benzylamino)-2-(5-methoxypyridin-3-yl)-9H-purin-9-yl)-3,4-dihydroxyl-N-(methyl-d3)-tetrahydrofuran-2-formamide]	1578.00
[2H]C([2H])([2H])NC(=O)[C@H]1O[C@@H](n2cnc3c(NCc4cc(C)ccc4F)nc(-c4cncc(Cl)c4)nc32)[C@H](O)[C@@H]1O [compound 225, (2S,3S,4R,5R)-5-(2-(5-chloropyridin-3-yl)-6-((2-fluoro-5-methylbenzyl)amino)-9H-purin-9-yl)-3,4-dihydroxyl-N-(methyl-d3)-tetrahydrofuran-2-carboxamide]	11356.86
[2H]C([2H])([2H])NC(=O)[C@H]1O[C@@H](n2cnc3c(NCc4ccccc4)nc(-c4cccnc4)nc32)[C@H](O)[C@@H]1O [compound 10, (2S,3S,4R,5R)-5-(6-(benzylamino)-2-(pyridin-3-yl)-9H-purin-9-yl)-3,4-dihydroxyl-N-(methyl-d3)-tetrahydrofuran-2-formamide]	146.00
[2H]C([2H])([2H])NC(=O)[C@H]1O[C@@H](n2cnc3c(NCc4cccc(OC)c4)nc(-c4cncc(Cl)c4)nc32)[C@H](O)[C@@H]1O [compound 265, (2S,3S,4R,5R)-5-(2-(5-chloropyridin-3-yl)-6-(3-methoxybenzylamino)-9H-purin-9-yl)-3,4-dihydroxyl-N-(methyl-d3)-tetrahydrofuran-2-carboxamide]	764.50
[2H]C([2H])([2H])NC(=O)[C@H]1O[C@@H](n2cnc3c(NCc4cccc(F)c4)nc(-c4cncc(Cl)c4)nc32)[C@H](O)[C@@H]1O [compound 321]	1167.46
[2H]C([2H])([2H])NC(=O)[C@H]1O[C@@H](n2cnc3c(NCc4ccccc4)nc(-c4cncc(F)c4)nc32)[C@H](O)[C@@H]1O [compound 32, (2S,3S,4R,5R)-5-(6-(benzylamino)-2-(5-fluoropyridin-3-yl)-9H-purin-9-yl)-3,4-dihydroxyl-N-(methyl-d3)-tetrahydrofuran-2-formamide]	1384.00
CNC(=O)[C@H]1O[C@@H](n2cnc3c(NCc4ccccc4)nc(-c4cccnc4)nc32)[C@H](O)[C@@H]1O [compound 110, (2S,3S,4R,5R)-5-(6-(benzylamino)-2-(pyridin-3-yl)-9H-purin-9-yl)-3,4-dihydroxyl-N-methyltetrahydrofuran-2-carboxamide]	276.50
[2H]C([2H])([2H])NC(=O)[C@H]1O[C@@H](n2cnc3c(NCc4ccccc4)nc(-c4cncc(C#N)c4)nc32)[C@H](O)[C@@H]1O [compound 19, (2S,3S,4R,5R)-5-(6-(benzylamino)-2-(5-cyanopyridin-3-yl)-9H-purin-9-yl)-3,4-dihydroxyl-N-(methyl-d3)-tetrahydrofuran-2-formamide]	74.00
